Data reported in patent US7572825B2, “Ketones and reduced ketones as therapeutic agents for the treatment of bone conditions” (The University Court of the University of Aberdeen, priority 2003, dated 2009).
pIC50: −log10 of the molar value.

Experiments:
osteoblasts = test: Alamar Blue mouse osteoblast assay; assay type: cell-based; settings: 72 hours exposure, read-out: IC50 against osteoblasts (survival)
Description: Osteoblasts were isolated as described above and plated at 10^4 cells/well in 96-well plates in 100 μL of αMEM supplemented with 10% FCS and antibiotics. Test compounds were added after 24 hours and left for 72 hours. Cell viability was assessed using the Alamar Blue assay as described for J774 macrophages. Alamar Blue (Biosource International) was added undiluted to each well (1:10 v/v, 10 μL). The plate was incubated at 37° C. for 3 to 4 hours and the fluorescence was measured at 570 nm, with a 25 nm bandwidth.
Osteoblast Isolation. Briefly, osteoblasts were isolated from the calvarial bones of 2-day-old mice by sequential collagenase digestion (type I collagenase, Sigma) and cultured in αMEM supplemented with 10% FCS (foetal calf serum) and penicillin and streptomycin at 37° C. in 5% CO2.
More specifically, osteoblasts were obtained from a collagenase digestion of the calvaria (skull bones) of 2-3 day old neo-natal MF1 mice. At this stage in their development these are soft and easily removed. The calvaria from 5-6 mice were carefully dissected and washed in HBSS (Hank's balanced saline solution). The calvaria were placed in a 15 mL tube and shaken at 37° C. in 4 mL collagenase (10 mg/ml) for 10 minutes. This removes the excess unwanted tissue. The liquid was disposed of and a further 4 mL collagenase (10 mg/ml) added to the tube. The calvaria were then digested for a further 30 minutes. […]

[1] = system: ovariectomy induced bone loss; test: Ovariectomy induced bone loss in mice, trabecular bone mineral density by pQCT; assay type: in vivo; settings: OVX female C57/BL6 mice, 20 mg/kg by gavage in olive oil, 21 days, tibial metaphysis
Description: Animals. Female 9 week-old C57/BL6 mice. Animals were housed in a designated animal facility and routinely maintained on a 12 h:12 h light:dark cycle and given ad libitum access to food and water. Ovariectomy induced bone loss. Bilateral ovariectomy (Ovx) was performed under general anaesthesia. Sham ovariectomy (Sham) was similarly performed but with externalisation and replacement of the ovaries. Animals were given a gavage of (a) candidate compound (e.g., 20 mg/kg) in vehicle (olive oil), or (b) vehicle (olive oil). After 21 days, the animals were killed, and the tibial bones were dissected and used for bone mineral density measurements. Bone Mineral Measurements. Measurements of bone mineral density (BMD) at the left proximal tibial metaphysis were determined by peripheral quantitative computed tomography (pQCT) using an XCT Research M bone densitometer with a voxel size of 70 μm and analysis software version 5.1.4. (Stratec Medizintechnik, Pforzheim, Germany). Daily quality assurance measurements were performed using a plexi-coated PVC-fluorinated hydrocarbon phantom according to the manufacturer's instructions.

J774 macrophages = test: Alamar Blue macrophage J774 viability assay; assay type: cell-based; settings: Mus musculus, 72 hours exposure, J774 macrophage cell line, read-out: IC50 against J774 macrophages (viability)
Description: Initial screening of candidate compounds was performed using viability assays, on cultures of the macrophage cell line J774, which have been used before as a model system for osteoclast survival (see, e.g., Luckman et al., 1998). The assay is based on the survival of the J774 macrophage cell line; macrophages are closely related to osteoclasts, and contain similar high levels of esterase activity.
J774 cells were plated at 10^4 cells per well in 150 μL αMEM (α Modified Eagle Medium) in 96-well plates and grown overnight. The next day, compounds were added to the cultures, and culture was continued for another 72 hours. At the end of the culture period cell survival was determined using an Alamar Blue assay as previously described (see, e.g., Nociari et al., 1998).
Alamar Blue is an oxidation-reduction sensitive indicator. The dye itself is in the oxidised state, which is blue and non-fluorescent. […] Thus the transformation from oxidised form to reduced form can be measured by fluorimetric or colourimetric means. For fluorescence measurements, 530-560 nm excitation and 590 nm emission wavelengths are typically used. For colourimetric measurements, absorbance is measured at 570 nm (reduced form) and 600 nm (oxidised form) and a simple calculation performed to determine the relative quantities of the two species. […]

Row | Compound | pIC50 (osteoblasts) | reversal of ovariectomy-induced bone loss (percent change in trabecular BMD) [1] | pIC50 (J774 macrophages)
1 | O=C(CCCCCO)c1ccc(-c2ccccc2)cc1 [ABD-68, 6-Hydroxy-1-(4-biphenyl)hexan-1-one] | < 4.00 | very effective at reversing the bone loss | > 4.70
2 | OCCCCCC(O)c1ccc(-c2ccccc2)cc1 (centres unmarked) [ABD-150, 1-Biphenyl-4-yl-hexan-1,6-diol] | < 4.00 |  | > 4.70
